Reference: PubChem BioAssay AID298 (DTP/NCI, 2004)
Values joined by “and” are separate entries in the source; they are usually repeats but may differ in a detail not shown here. Equal values may be shown once. Records with an inconclusive call do not appear.

Test system: MX-1 breast xenograft, intrarenal, nude mice, tumor weight
Experiment: NCI In Vivo Anticancer Drug Screen. Data for tumor model Human Mammary Carcinoma MX-1 Xenograft (intrarenal inoculation) in NU/NU BALB/C (nude) mice
Details: endpoint: mean tumor weight change, higher = larger tumour
Procedure, shortened: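 Transplantable tumors established in mice; animals dosed with compound or vehicle; survival or tumor size then recorded. Result reported as treated (T) divided by vehicle control (C).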

[1] = dose: 50.0 mg/kg/injection, schedule: Q04DX003 (ip), vehicle: saline with Tween-80
[2] = dose: 150.0 mg/kg/injection, schedule: Q04DX003 (sc), vehicle: saline with Tween-80
[3] = dose: 300.0 mg/kg/injection, schedule: Q04DX003 (sc), vehicle: saline with Tween-80
[4] = dose: 600.0 mg/kg/injection, schedule: Q04DX003 (sc), vehicle: saline with Tween-80
[5] = dose: 1200.0 mg/kg/injection, schedule: Q04DX003 (sc), vehicle: saline with Tween-80

Cc1cccc(OCC(O)CN2CC2)c1 (stereo not drawn)
T/C [1]: 63 % of control
T/C (dose: 100.0 mg/kg/injection, schedule: Q04DX003 (ip), vehicle: saline with Tween-80): 62 % of control

COc1cc2cc3c(c(O)c2c(O)c1/C=C/C(C)C)C(=O)CC(C)(OC(C)=O)C3 (stereo not drawn)
T/C (dose: 5.0 mg/kg/injection, schedule: Q04DX003 (ip), vehicle: Klucel (hydroxypropylcellulose) (HPC)): 85 % of control
T/C (dose: 10.0 mg/kg/injection, schedule: Q04DX003 (ip), vehicle: Klucel (hydroxypropylcellulose) (HPC)): 66 % of control
T/C (dose: 20.0 mg/kg/injection, schedule: Q04DX003 (ip), vehicle: Klucel (hydroxypropylcellulose) (HPC)): 63 % of control

CCOC(=O)C(N)CSC(=O)NC (stereo not drawn)
T/C (dose: 112.5 mg/kg/injection, schedule: Q04DX003 (ip), vehicle: Klucel (hydroxypropylcellulose) (HPC)): 54 % of control
T/C (dose: 125.0 mg/kg/injection, schedule: Q04DX003 (sc), vehicle: saline): 72 % of control
T/C (dose: 225.0 mg/kg/injection, schedule: Q04DX003 (ip), vehicle: Klucel (hydroxypropylcellulose) (HPC)): 14 % of control
T/C (dose: 225.0 mg/kg/injection, schedule: Q04DX003 (sc), vehicle: saline): 26 % of control
T/C (dose: 450.0 mg/kg/injection, schedule: Q04DX003 (ip), vehicle: Klucel (hydroxypropylcellulose) (HPC)): 9 % of control
T/C (dose: 450.0 mg/kg/injection, schedule: Q04DX003 (sc), vehicle: saline): 2 % of control
T/C (dose: 900.0 mg/kg/injection, schedule: Q04DX003 (sc), vehicle: saline): -19 % of control

CC1(C)CC(=O)C(CSC(=O)c2ccccc2)C(=O)C1
T/C (dose: 75.0 mg/kg/injection, schedule: Q04DX003 (sc), vehicle: Klucel (hydroxypropylcellulose) (HPC)): 101 % of control
T/C (dose: 150.0 mg/kg/injection, schedule: Q04DX003 (sc), vehicle: Klucel (hydroxypropylcellulose) (HPC)): 101 % of control
T/C (dose: 300.0 mg/kg/injection, schedule: Q04DX003 (sc), vehicle: Klucel (hydroxypropylcellulose) (HPC)): 101 % of control

COC1(OC)C2C=CC1CC2
T/C [2]: 116 % of control
T/C [3]: 104 % of control
T/C [4]: 121 % of control
T/C [5]: 111 % of control

Nc1cc2c(cc1Br)-c1c(C(=O)O)cccc1C2O (stereo not drawn)
T/C (dose: 150.0 mg/kg/injection, schedule: Q04DX003 (ip), vehicle: sodium bicarbonate): 97 % of control
T/C (dose: 300.0 mg/kg/injection, schedule: Q04DX003 (ip), vehicle: sodium bicarbonate): 94 % of control
T/C (dose: 600.0 mg/kg/injection, schedule: Q04DX003 (ip), vehicle: sodium bicarbonate): 101 % of control
T/C (dose: 1200.0 mg/kg/injection, schedule: Q04DX003 (ip), vehicle: sodium bicarbonate): 92 % of control

Nc1nc(Br)nc2c1ncn2C1CC(O)C(CO)O1 (stereo not drawn)
T/C (dose: 7.5 mg/kg/injection, schedule: Q03DX003 (ip), vehicle: saline): 109 % of control
T/C (dose: 15.0 mg/kg/injection, schedule: Q03DX003 (ip), vehicle: saline): 88 % of control
T/C (dose: 30.0 mg/kg/injection, schedule: Q03DX003 (ip), vehicle: saline): 43 % of control
T/C (dose: 60.0 mg/kg/injection, schedule: Q03DX003 (ip), vehicle: saline): 59 % of control
T/C (dose: 120.0 mg/kg/injection, schedule: Q03DX003 (ip), vehicle: saline): 65 % of control

CC(=O)Nc1cscc1NC(C)=O
T/C [2]: 198 % of control
T/C [3]: 59 % of control
T/C [5]: 106 % of control

Cc1ccc(C(=O)NC2C(=O)NC(C(C)C)C(=O)N3CCCC3C(=O)N(C)CC(=O)N(C)C(C(C)C)C(=O)OC2C)c2c1Oc1c(c(C(=O)NC3C(=O)NC(C(C)C)C(=O)N4CCCC4C(=O)N(C)CC(=O)N(C)C(C(C)C)C(=O)OC3C)c3nc(-c4ccccc4)c(=O)oc3c1C)N2 (stereo not drawn)
T/C (dose: 1.0 mg/kg/injection, schedule: Q04DX003 (ip), vehicle: water): 16 % of control and 26 % of control
T/C (dose: 2.0 mg/kg/injection, schedule: Q04DX003 (ip), vehicle: water): 5 % of control

CC[PH+](CC)CC[S-].CC[PH+](CC)CC[S-].[Au+].[Au+]
T/C (dose: 40.0 mg/kg/injection, schedule: Q04DX003 (sc), vehicle: Klucel (hydroxypropylcellulose) (HPC)): 87 % of control
T/C (dose: 80.0 mg/kg/injection, schedule: Q04DX003 (sc), vehicle: Klucel (hydroxypropylcellulose) (HPC)): 69 % of control
T/C (dose: 160.0 mg/kg/injection, schedule: Q04DX003 (sc), vehicle: Klucel (hydroxypropylcellulose) (HPC)): 55 % of control
T/C (dose: 320.0 mg/kg/injection, schedule: Q04DX003 (sc), vehicle: Klucel (hydroxypropylcellulose) (HPC)): 80 % of control

O=C1NC(=O)NC(C(=O)O)N1
T/C (dose: 200.0 mg/kg/injection, schedule: Q04DX003 (sc), vehicle: Klucel (hydroxypropylcellulose) (HPC)): 96 % of control
T/C (dose: 400.0 mg/kg/injection, schedule: Q04DX003 (sc), vehicle: Klucel (hydroxypropylcellulose) (HPC)): 108 % of control

O=C(CCCN1CCC(C(O)c2ccc(F)cc2)CC1)c1ccc(F)cc1 (stereo not drawn)
T/C (dose: 25.0 mg/kg/injection, schedule: Q04DX003 (ip), vehicle: saline with Tween-80): 90 % of control
T/C [1]: 83 % of control

O=C1N[C@H]2[C@H](CS[C@H]2CCCCC(=O)N(CCP(c2ccccc2)c2ccccc2)CCP(c2ccccc2)c2ccccc2)N1
T/C (dose: 600.0 mg/kg/injection, schedule: Q04DX003 (sc), vehicle: Klucel (hydroxypropylcellulose) (HPC)): 108 % of control
T/C (dose: 1200.0 mg/kg/injection, schedule: Q04DX003 (sc), vehicle: Klucel (hydroxypropylcellulose) (HPC)): 97 % of control
T/C (dose: 2400.0 mg/kg/injection, schedule: Q04DX003 (sc), vehicle: Klucel (hydroxypropylcellulose) (HPC)): 115 % of control

[Cl][Pt][Cl].[NH-]C(CO)C(=O)O (stereo not drawn)
T/C (dose: 12.5 mg/kg/injection, schedule: Q04DX003 (ip), vehicle: water): 92 % of control
T/C (dose: 25.0 mg/kg/injection, schedule: Q04DX003 (ip), vehicle: water): 100 % of control
T/C (dose: 37.5 mg/kg/injection, schedule: Q04DX003 (ip), vehicle: water): 57 % of control
T/C (dose: 50.0 mg/kg/injection, schedule: Q04DX003 (ip), vehicle: water): 100 % of control
T/C (dose: 75.0 mg/kg/injection, schedule: Q04DX003 (ip), vehicle: water): 11 % of control
T/C (dose: 100.0 mg/kg/injection, schedule: Q04DX003 (ip), vehicle: water): 16 % of control

CCNC=O
T/C (dose: 200.0 mg/kg/injection, schedule: Q01DX010 (sc), vehicle: saline): 85 % of control
T/C (dose: 400.0 mg/kg/injection, schedule: Q01DX010 (sc), vehicle: saline): 70 % of control
T/C (dose: 800.0 mg/kg/injection, schedule: Q01DX010 (sc), vehicle: saline): 27 % of control

CC(=O)Oc1[nH]c(=O)c2cccc3c2c1CCC3
T/C [3]: 107 % of control
T/C [4]: 93 % of control
T/C [5]: 118 % of control
T/C (dose: 2400.0 mg/kg/injection, schedule: Q04DX003 (sc), vehicle: saline with Tween-80): 89 % of control

CCCCCCn1c(SC)nc(COC(=O)NC)c1COC(=O)NC
T/C (dose: 33.7 mg/kg/injection, schedule: Q04DX003 (ip), vehicle: saline): 6 % of control
T/C (dose: 67.5 mg/kg/injection, schedule: Q04DX003 (ip), vehicle: saline): -37 % of control
T/C (dose: 135.0 mg/kg/injection, schedule: Q04DX003 (ip), vehicle: saline): -86 % of control
T/C (dose: 270.0 mg/kg/injection, schedule: Q04DX003 (ip), vehicle: saline): -100 % of control

Cc1cc(N(CCOS(C)(=O)=O)CCOS(C)(=O)=O)ccc1C=Nc1ccc(-c2nc(Cc3ccccc3)sc2C)cc1
T/C (dose: 50.0 mg/kg/injection, schedule: Q01DX010 (sc), vehicle: Klucel (hydroxypropylcellulose) (HPC)): -72 % of control
T/C (dose: 100.0 mg/kg/injection, schedule: Q01DX010 (sc), vehicle: Klucel (hydroxypropylcellulose) (HPC)): -60 % of control
T/C (dose: 200.0 mg/kg/injection, schedule: Q01DX010 (sc), vehicle: Klucel (hydroxypropylcellulose) (HPC)): -90 % of control
T/C (dose: 400.0 mg/kg/injection, schedule: Q01DX010 (sc), vehicle: Klucel (hydroxypropylcellulose) (HPC)): -86 % of control

NC(=O)CCC(N)C(=O)O (stereo not drawn)
T/C (dose: 150.0 mg/kg/injection, schedule: Q04DX003 (ip), vehicle: suspension in saline): 91 % of control
T/C (dose: 300.0 mg/kg/injection, schedule: Q04DX003 (ip), vehicle: suspension in saline): 102 % of control
T/C (dose: 600.0 mg/kg/injection, schedule: Q04DX003 (ip), vehicle: suspension in saline): 76 % of control
T/C (dose: 1200.0 mg/kg/injection, schedule: Q04DX003 (ip), vehicle: suspension in saline): 87 % of control

c1nnc(NCNc2nncs2)s1
T/C (dose: 50.0 mg/kg/injection, schedule: Q04DX003 (ip), vehicle: suspension in saline): 89 % of control
T/C (dose: 100.0 mg/kg/injection, schedule: Q04DX003 (ip), vehicle: suspension in saline): 59 % of control
T/C (dose: 200.0 mg/kg/injection, schedule: Q04DX003 (ip), vehicle: suspension in saline): 78 % of control
T/C (dose: 400.0 mg/kg/injection, schedule: Q04DX003 (ip), vehicle: suspension in saline): 65 % of control
